Data as given in patent US20240000071A1, “DEVICES, COMPOUNDS AND METHODS FOR INSECT CONTROL” (Agriculture Victoria Services Pty Ltd, priority 2020, published 2024).
Like-named read-outs stand apart in the source and are kept apart here.

Key:
[1] = tested on: Queensland fruit flies antennae and palps; assay: Electroantennogram (EAG) and Electropalpogram (EPG) screening; design: species or system Bactrocera tryoni
Text: FIG. 2. Electrophysiological responses of Queensland fruit flies antennae (A) and palps (B) to fungal (FV) components. Graphs located on the upper part of each figure represent the electric potential of the antenna/palp. Arrows indicate points in time at which chemical stimulations are applied. Olfactory “responses” are characterised by sudden drops (spike) of the electric potential in the antenna; the amplitude of which is positively correlated to response strength. Stars indicate statistical significance of response amplitudes elicited by test compounds compared to that of the solvent (blank=paraffin oil). Bars represent the normalized responses relative to a positive control (ethyl hexanoate) of male (grey) and female (white) flies. Letters above bars indicate significant differences in response strength between each sex.
Graphs located on the upper part represent the electric potential of the antenna/palp. Arrows indicate points in time at which chemical stimulations are applied. Olfactory “responses” are characterised by sudden drops (spike) of the electric potential in the antenna; the amplitude of which is positively correlated to response strength. Stars indicate statistical significance of response amplitudes elicited by test compounds compared to that of the solvent (blank=paraffin oil). Bars represent the normalized responses relative to a positive control (ethyl hexanoate) of male (grey) and female (white) flies. Letters above bars indicate significant differences in response strength between male and female Qfly.

[2] = Release rate from LDPE sachets by gravimetry; type: physicochemical; settings: for Release rate per thickness of LDPE pouch: 22° C., constant, laboratory; for Estimated longevity: standard size sachet (50 cm^2), 1 ml of neat compound
Text: Sachets consist of plastic pouches made of Low Density PolyEthylene (LDPE) layflat tubing of determined size and thickness. Each sachet contained one or several dental wicks (approximately 4 cm length and 1 cm diameter) on which a given amount of the neat chemical compound was applied (between 0.1 and 5 g). The impregnated wick (20) was subsequently enclosed in the LDPE pouch (10) and sealed using a heat sealer (FIG. 3).
Release rates of the short chain esters and fungal alcohols were investigated in a range of sachet designs.

[3] = tested on: female B. tryoni; assay: GC-FID-EAD with odours of infested yellow nectarines; design: species or system Bactrocera tryoni; settings: female B. tryoni antenna
Description: Gas-chromatography linked to electrophysiology (GC-FID-EAD) was conducted using female B. tryoni and odours of infested yellow nectarines (collected by SPME), to identify volatiles of interest as candidate female attractants.

[4] = tested on: Mediterranean fruit fly, Ceratitis capitata; settings: cited from earlier work

SMILES	electrophysiological responses (EAG/EPG) [1]	electrophysiological responses (EAG/EPG) ([1]; listed as iso-butyl alcohol)	Release rate per thickness of LDPE pouch ([2]; 50 μm LDPE pouch) [mg/day]	Release rate per thickness of LDPE pouch ([2]; 100 μm LDPE pouch) [mg/day]	Release rate per thickness of LDPE pouch ([2]; 150 μm LDPE pouch) [mg/day]	Estimated longevity [2]	electrophysiological (EAD) response [3]	electrophysiological response in EAG [4]	Release rate per thickness of LDPE pouch ([2]; 200 μm LDPE pouch) [mg/day]	electrophysiological responses (EAG/EPG) ([1]; listed as 2-methyl-1-butanol)	electrophysiological responses (EAG/EPG) ([1]; listed as 2-methylbutanol)
CC(C)CO [Isobutyl alcohol]	weak and inconsistent responses	strong electrophysiological responses	20	4	2	>1 year					
CCCCCCC1CCC(=O)O1 (stereo not shown) [γ-decalactone]							significant response	evoke an electrophysiological response			
CCOC(=O)CC [Ethyl propionate]			880	321	200	~5 days			171		
CCOC(C)=O [Ethyl acetate]			880	302.7	180.6	~6 days			134		
CCCC(=O)OCC [Ethyl butyrate]			700	295	171	~6 days			127		
CCC(C)CO (stereo not shown) [2-Methyl-butanol, 2-methyl-1-butanol]			16.4	4.1	2.1	>1 year				strong electrophysiological responses	strong responses
CC(C)CCO [Isoamyl alcohol]	strong electrophysiological responses		12	3	2	>1 year					
